Results from US4304853A, “Method of determination for proteases and antiproteases” (priority 1979, dated 1981).
Structures can show the parent of a compound that is named as a salt. Where two headings read alike, the source gives them in different places.

Assays:
thrombin = assay: Amperometric determination of substrate hydrolysis by thrombin (oxidation current of liberated amine); assay type: biochemical
Protocol: (§1) (a) A potentiostat, which is intended to maintain a constant potential difference between the measurement electrode and the reference electrode. A saw-tooth function generator, which generates a potential which varies between -0.1 and +0.4 V at a rate of 0.2 V/second. A graphic recorder with a good dynamic performance. A polytetrafluoroethylene cell which has a capacity of 5 ml and can hold three electrodes.
(§2) (e) Solutions: The stock solutions of the enzyme (solution E) and of the substrate (solution S) are freshly prepared. The test solution, to which a given amount of E is added at the time t=0 of the kinetics, is termed A. The buffer, which has a pH of 8.15, is made up of 0.025 M Veronal^(R) and NaCl with an ionic strength of F=0.15.
(§3) (f) Example of an electrode made of carbon paste: 15 g of pure carbon powder are mixed with 9 ml of paraffin oil, for example that sold commercially under the trade name Nujol^(R). An electrode with a surface area of 0.16 cm^2 and a thickness of 3 mm can be shaped from the homogeneously mixed paste.
(§4) The measurement electrode is preconditioned in solution A without the enzyme, in order to impart to it a reproducible and precisely defined surface state before each cycle.
(§5) The preconditioning is achieved by applying a potential which has a saw-tooth profile and changes as a function of time, the potential varying between -0.1 and +b 0.4 V and changing at a rate of 0.2 V/second.
(§6) The electrode can then be used for the kinetic determinations, for which purpose the same saw-tooth potential as for the conditioning is applied every 60 seconds.
After deducting the base current at the particular potential, the current levels recorded at the maximum value of any one wave i=f(U) are proportional to the concentration of the electroactive species liberated during the hydrolysis. In the case of short hydrolysis times, a plot of the current levels against time is linear. The relationship between the enzyme concentration E (in μg/ml) and the rate of hydrolysis at time 0 (represented by the ratio (di/dt)o in μA/minute, that is to say by the gradient of the curve i=f (t) at the origin) for an electrode with a surface area of 1 cm^2 is given by the following formula: […]
The procedure is similar to that for trypsin and is also suitable for the determination of further enzymes, also with the aid of other substrates.
These constants (summarized in Table II below) have been obtained with the aid of the electrode prepared in accordance with Example I f).

trypsin = assay: Amperometric determination of substrate hydrolysis by trypsin (oxidation current of liberated pADA); assay type: biochemical
Protocol: as §1
(b) Measurement electrode: This consists of a platinum plate which is surrounded by a cylinder of polytetrafluoroethylene (surface area 0.0314 cm^2).
as §2, §3, §4, §5, §6
After deducting the base current at the particular potential, the current levels recorded at the maximum value of any one wave i=f(U) are proportional to the concentration of the electroactive species liberated during the hydrolysis. […]
The enzyme solution is added at the end of the potentiodynamic cycle which serves to record the base current (the base current has been shifted downwards; it is represented by the broken line). The concentrations corresponding to the current maxima can be read off from the calibration curve (FIG. 3). The conversion is determined as a function of time (maximum 30 minutes). […]
The reciprocal value of the rate (1/V) has been plotted as the ordinate and the reciprocal value of the concentration of the substrate (1/S) has been plotted as the abscissa. The reciprocal value of the rate 1/V was expressed as follows: either as (μA/minute--10 μg of enzyme)^-1 or as (μ mol×10^3 of pADA/minute--10 μg of enzyme). The points o represent an average value of 10 measured values for the rate and the points X represent a graphical average value. […]

[1] = carbon paste electrode, buffer a: Tris (0.025 M), NaCl (0.12 M), glycine (0.05 M), DMSO 4.76%, 20° C., pH 8.3
[2] = carbon paste electrode, buffer a: Tris (0.025 M), NaCl (0.12 M), glycine (0.05 M), DMSO 4.76%, 20° C., pH 8.3, read-out: KM: Michaelis constant

Row | SMILES | Standardization: current after hydrolysis for one minute (thrombin; 0.1 mM of substrate with 0.01 I.U. of thrombin for one minute, Veronal buffer) [μA/cm^2] | VM: maximum rate (thrombin; [1]) [μmole/minute I.U.] | Km (thrombin; [2]) [µM] | Vm (thrombin; hydrolysis with thrombin, procedure similar to that for trypsin, Veronal buffer) | Km (thrombin; hydrolysis with thrombin, procedure similar to that for trypsin, Veronal buffer, read-out: Km) [µM] | VM: maximum rate (trypsin; carbon paste electrode, buffer b: Veronal (0.025 M), NaCl (0.12 M), DMSO 6.35%, 30° C., pH 8.4) [μmole/minute I.U.] | Km (trypsin; carbon paste electrode, buffer b: Veronal (0.025 M), NaCl (0.12 M), DMSO 6.35%, 30° C., pH 8.4, read-out: KM: Michaelis constant) [µM] | Standardization: current after hydrolysis for one minute (trypsin; hydrolysis of the substrate with 1 mM of trypsin for one minute, per cm^2 of electrode surface area, Veronal buffer pH 8.15) [μA/cm^2] | Km (trypsin; hydrolysis with trypsin 10 μg/ml, 30° C., pH 8.15 (TRIS), DMSO 6.35%, LINEWEAVER-BURK diagram FIG. 7, read-out: MICHAELIS-MENTEN constant Km) [µM]
1 | N=C(N)NCCC[C@H](NC(=O)[C@@H]1CCCCN1C(=O)[C@H](N)Cc1ccccc1)C(=O)Nc1ccc(Nc2ccccc2)cc1 [HDL, H-D-phenylalanyl-L-pipecolyl-L-arginyl-p-amino-diphenylamide dihydrochloride] | 0.217 | 0.10 | 10 | 1.1×10^-7 moles/minute×I.U. | 10 | – | – | – | –
2 | COc1cc(NC(=O)[C@H](CCCNC(=N)N)NC(=O)[C@@H]2CCCCN2C(=O)[C@H](N)Cc2ccccc2)cc2ccccc12 [H--D--Phe--Pip--Arg--4--MBNA] | – | 0.020 | 37 | – | – | – | – | – | –
3 | N=C(N)NCCCC(NC(=O)c1ccccc1)C(=O)Nc1ccc(Nc2ccccc2)cc1 (racemic) [D,L-BAPADA, benzoyl-D,L-arginine-p-aminodiphenyl-amide, HCl] | – | – | – | – | – | 0.00096 | 800 | 0.295 | 800
